# Experiments:
# [1] = test system: Adults with Type 2 Diabetes Mellitus; details: starting HbA1c below 8; 300 mg/day; as long as 52 weeks; cited from earlier work
# subject with T2D [2] = test: Blood glucose response to postprandial exercise; assay type: in vivo, human
# Experimental: The patient of Example 1 was encouraged to track glucose levels, including postprandial glucose levels, to observe the effect of postprandial exercise and lifestyle changes. To control triglyceridemia they also started over the counter orlistat at a 60 mg dose daily with a daily multi-vitamin supplement and an additional vitamin D supplement. They had discontinued metformin and statins. Instead close monitoring of blood glucose levels was undertaken.
# In Example 2, when using orlistat at 60 mg daily, the patient noticed that blood glucose levels reduced to a level of about 90 to 100 mg/dL, which is in the normal range, after a modest meal with a brisk walk after eating. The blood glucose levels stayed below 100 mg/dL for several hours. […] Effectively exercise is contraindicated in standard of care treatments for T2D due to the use of medications that can drive the glucose levels too low.
# A subject with T2D with fasting glucose levels of over 140 mg/dL was treated with 60 mg Orlistat. The subject undertook exercise in a postprandial state within about an hour and a half after eating. […]
# The subject with T2D was treated with Pioglitazone 15 mg and postprandial exercise but no Exercise Sensitizer or SGLT2 inhibitor. Over twenty minutes of postprandial exercise glucose readings were taken every 5 minutes for fifteen minutes. […]
# The subject with T2D was treated with Exercise Sensitizer Colestipol (1 gm dose) and postprandial exercise. Over twenty minutes of postprandial exercise glucose readings were taken every 5 minutes for fifteen minutes. […]
# The subject with T2D was treated with Exercise Sensitizer Colestipol (1 gm) before each meal and with 60 mg. of Exercise Sensitizer Orlistat and 100 mg. of Canagliflozin daily. […] Over twenty minutes of postprandial exercise on an elliptical trainer at a resistance setting of 6, glucose readings dropped to about 81 to 84 mg/dL. […]
# subject with T2D [3] = test: Blood glucose response to exercise in a fasting state; assay type: in vivo, human; details: 60 mg Orlistat; over fifteen to thirty minutes
# Experimental: A subject with T2D with starting fasting glucose level of about 140 mg/dL to 160 mg/dL and HbA1c of about 8 was treated with Orlistat. In one aspect, the subject with T2D was treated with 60 mg Orlistat and exercised in a fasting state. […] Although not intending to be bound by theory, one factor may be the natural inhibition of gluconeogenesis in the postprandial state. In addition, the release of fatty acids or lack thereof may affect the release of cholecystokinin and other downstream effects and thus account for the synergy between the postprandial state and the Exercise Sensitizers.
# subject with T2D [4] = test: Three month treatment with postprandial exercise: fasting glucose, HbA1c, triglycerides, BMI; assay type: in vivo, human; details: postprandial exercise with orlistat; from over 500 mg/dL
# Experimental: Over three months to speed up the slow progress the subject with T2D with fasting glucose level of about 140 mg/dL and HbA1c of about 7.5 or above was treated with Orlistat at the lowest marketed dose of 60 mg and the lowest dose for either Canafliglozin (100 mg) and Dapagliflozin (5 mg). Postprandial exercise with orlistat reduced triglycerides to about 260 mg/dL from over 500 mg/dL.
# An invasive glucose testing meter was used to simulate a post-prandial invasive/noninvasive glucose monitoring device. Specifically a combination of orlistat and a SGLT2 inhibitor (Canafliglozin and Dapagliflozin) was administered. Treatment with orlistat (60 mg) daily alone with […]
# The fasting glucose levels changed and continued to decrease overall over the three months.
# The fasting glucose levels were obtained using a portable glucose meter while the fasting glucose (again to check the meter and strip accuracy) and HbA1c were determined using laboratory tests that included a lipid panel. […] Also the subject could not be fully compliant—many meals were not followed by exercise. The treatment with Exercise Sensitizer and SGLT2 inhibitor was adhered to strictly. Still, the triglyceride levels dropped to 260 and eventually to about 220 from about 500. […]
compound,measurement,setting,value
"Cc1ccc([C@@H]2O[C@H](CO)[C@@H](O)[C@H](O)[C@H]2O)cc1Cc1ccc(-c2ccc(F)cc2)s1 [Canagliflozin, (2S,3R,4R,5S,6R)-2-{3-[5-[4-Fluoro-phenyl)-thiophen-2-ylmethyl]-4-methyl-phenyl}-6-hydroxymethyl-tetrahydro-pyran-3,4,5-triol]",improvement in HbA1c,[1],less than 0.8
"CCCCCCCCCCC[C@@H](C[C@@H]1OC(=O)[C@H]1CCCCCC)OC(=O)[C@H](CC(C)C)NC=O [Orlistat, (S)—((S)-1-((2S,3S)-3-Hexyl-4-oxooxetan-2-yl)tridecan-2-yl) 2-formamido-4-methylpentanoate]",blood/plasma glucose level after postprandial exercise,"subject with T2D [2]; 60 mg Orlistat, exercise within about an hour and a half after eating, fasting glucose over 140 mg/dL",dropped sharply to the normal range
same,blood glucose level for several hours after the postprandial walk,"subject with T2D [2]; orlistat 60 mg daily, several hours",below 100 mg/dL
same,blood/plasma glucose level on exercise in a fasting state,subject with T2D [3],increased or remained steady in the high range
same,triglycerides,subject with T2D [4],about 260 mg/dL
CCc1ccc(CCOc2ccc(CC3SC(=O)NC3=O)cc2)nc1 (stereo not drawn) [Pioglitazone],blood glucose level during postprandial exercise,"subject with T2D [2]; Pioglitazone 15 mg, at about ten minutes, then leveled off, from about 175 mg/dL",about 103 mg/dL

# — patent US10743813B2, “Diabetes control using postprandial feedback” (priority 2014, dated 2020)
